The values below come from BindingDB's records for doi:10.1021/bi100299r (Riken Systems and Structural Biology Center, 2010).

In this assay the target is Lysine-specific histone demethylase 1A (Homo sapiens, UniProt O60341). In words: LSD1 Inhibition Assay. The text has this: The kinetic inhibition parameters of LSD1 demethylase inhibition were obtained using the peroxidase-coupled reaction method.

A word on the IC50: it is the midpoint of a concentration-inhibition curve. Lower therefore signals inhibition by little substance. For `COc1cccc(COc2c(F)cc(F)cc2C2CC2N)c1` (centres undefined) [S2206], the IC50 was > 30 µM. Next, `CC(C)COc1ccc(C2CC2N)c(OCC(C)C)c1` (centres undefined) [S1602]: > 30 µM.

Take `NC1CC1c1cc(F)ccc1-c1ccccc1` (centres undefined) [S1310]: the IC50 is > 50 µM.

The molecule `CC(C)COc1ccc(Cl)cc1C1CC1N` (centres undefined) had an IC50 of 14.9 µM. Next, `NCc1cccc(COc2c(F)cc(F)cc2C2CC2N)c1` (centres undefined) [S2107]: 4.1 µM; `NC1CC1c1ccc(OCc2ccccc2)cc1OCc1ccccc1` (centres undefined) [S1601]: > 30 µM; `NC1CC1c1cc(Cl)ccc1OCc1ccccc1` (centres undefined) [S1401]: > 30 µM.

`CC(C)COc1c(Cl)cc(Cl)cc1C1CC1N` (centres undefined) [S1502]: the IC50 was > 50 µM. As for `NC1CC1c1ccc(OCC2CCCCC2)cc1OCC1CCCCC1` (centres undefined) [S1603], the IC50 is > 30 µM.
